Legend:
[1] = test system: APN in HepG2 cells; test: APAP-induced hepatotoxicity and hepatoprotective drugs in HepG2 cells, imaged with NB-APN; assay type: cell-based, human; conditions: for effect on the red fluorescence of HepG2 cells: drug 300 μM + APAP 1,000 μM + NB-APN 5 μM
Description: It has been reported that the excessive use of antipyretic analgesic acetaminophen (APAP) can cause drug-induced liver injury, during which process an APN concentration increases. The present disclosure also evaluates the performance of NB-APN in monitoring APN changes during APAP-induced acute hepatotoxicity and a drug treatment thereof. The NB-APN was used to evaluate the production of APN in APAP-stimulated cells. […] Furthermore, the NB-APN was used to study a relationship between the hepatotoxicity therapy and the APN level in living cells. Four drugs (NAC, GSH, TIO, and Glu) were investigated as anti-DILI hepatoprotective agents. […] This may be because the intake of GSH helps to improve the detoxification ability of the liver and reduce the damage of APAP to the liver. In addition, the western blot result was also consistent with the result of fluorescent imaging.

[2] = target: T1, APN in liver (Mus musculus, UniProt P97449); test: In vivo imaging of APN activity in nude mice with DILI; design: species or system nude mouse; conditions: 300 mg/kg APAP intraperitoneal, 12 h after NB-APN tail vein injection
T1 construct: from tissue; host or cells: liver of nude mice, in vivo
T1 sequence (P97449 1-966): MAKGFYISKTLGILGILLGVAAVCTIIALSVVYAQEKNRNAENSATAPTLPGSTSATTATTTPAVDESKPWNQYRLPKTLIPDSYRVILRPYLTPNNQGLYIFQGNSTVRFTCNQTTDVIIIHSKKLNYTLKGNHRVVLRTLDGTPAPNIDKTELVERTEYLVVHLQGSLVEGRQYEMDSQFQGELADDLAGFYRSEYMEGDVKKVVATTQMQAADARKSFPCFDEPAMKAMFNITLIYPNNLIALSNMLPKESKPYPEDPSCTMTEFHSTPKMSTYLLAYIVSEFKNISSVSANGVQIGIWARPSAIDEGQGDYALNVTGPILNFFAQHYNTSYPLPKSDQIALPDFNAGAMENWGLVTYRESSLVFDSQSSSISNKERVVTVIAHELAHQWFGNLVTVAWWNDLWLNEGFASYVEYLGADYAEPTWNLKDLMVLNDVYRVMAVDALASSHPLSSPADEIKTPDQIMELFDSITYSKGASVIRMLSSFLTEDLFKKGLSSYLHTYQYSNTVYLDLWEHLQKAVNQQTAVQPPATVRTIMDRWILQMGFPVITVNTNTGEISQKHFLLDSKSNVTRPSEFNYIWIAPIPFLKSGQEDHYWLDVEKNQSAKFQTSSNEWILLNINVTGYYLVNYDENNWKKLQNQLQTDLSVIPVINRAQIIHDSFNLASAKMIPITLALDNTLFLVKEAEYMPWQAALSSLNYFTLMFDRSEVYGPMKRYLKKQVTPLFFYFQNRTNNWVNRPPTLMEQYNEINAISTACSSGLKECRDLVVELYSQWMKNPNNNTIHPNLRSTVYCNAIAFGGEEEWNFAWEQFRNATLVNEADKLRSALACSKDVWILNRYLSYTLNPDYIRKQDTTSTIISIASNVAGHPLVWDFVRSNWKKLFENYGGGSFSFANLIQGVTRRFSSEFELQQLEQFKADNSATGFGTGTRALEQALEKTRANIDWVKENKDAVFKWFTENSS
Protocol: The NB-APN was used to image the activity of APN in nude mice with DILI. Nude mice were intraperitoneally pre-injected with pH 7.4 PBS (control), and then injected with NB-APN through the tail vein. The background fluorescence signal of the nude mice was extremely low 6 h and 12 h after the NB-APN injection. […] In addition, the nude mouse with DILI was sacrificed, and the main organs (heart, liver, spleen, lung, and kidney) and the tumor were collected for imaging after 3 h of NB-APN pretreatment.

[3] = target: APN (Homo sapiens, UniProt P15144); test: Inhibitor experiments with bestatin in the NB-APN + APN system; assay type: biochemical; conditions: bestatin 1 μM and 10 μM, APN 25 ng/mL, NB-APN 10 μM, 37° C., pH 7.4, 20 min
Protocol: Inhibitor experiments: a: NB-APN (10 μM); b: system (a)+APN (25 ng/mL); c: system (b)+bestatin (1 μM); and d: system (b)+bestatin (10 μM).
The influence of different concentrations of bestatin on the fluorescence ratio I675/I610 of 10 μM NB-APN (green) or 10 μM NB (red) was investigated, with λex=560 nm, 37° C., pH 7.4, 20 min.

[4] = target: T2, APN in liver cancer cells HepG2 (Homo sapiens, UniProt P15144); test: Confocal ratiometric cell imaging of APN, HepG2; assay type: cell-based; conditions: HepG2, bestatin 100 μM pre-treatment 1 h, NB-APN 5 μM 30 min
T2 construct: after acting on HepG2 cells, indicating the existence of intrinsic APN; endogenous in cells; host or cells: HepG2
Protocol: (§1) The probe NB-APN was used for the imaging analysis of APN in liver cancer cells HepG2 and normal hepatocytes LO2. A confocal fluorescence microscope was adopted, and an excitation light source with a wavelength of 559 nm was adopted. The light emitted from a yellow channel (580 nm to 620 nm) and a red channel (660 nm to 700 nm) was collected. The HepG2 cells and LO2 cells were each pre-treated with bestatin (100 μM) for 1 h and then incubated with NB-APN (5 μM) for 30 min.

[5] = target: T3, APN in normal hepatocytes LO2 (Homo sapiens, UniProt P15144); test: Confocal ratiometric cell imaging of APN, LO2; assay type: cell-based; conditions: LO2, bestatin 100 μM pre-treatment 1 h, NB-APN 5 μM 30 min
T3 construct: endogenous in cells; host or cells: LO2
Protocol: as §1

[6] = target: T4, APN in transplanted tumor (Homo sapiens, UniProt P15144); test: In vivo fluorescent imaging of HepG2 tumor-transplanted nude mice; design: species or system nude mouse; conditions: 50 μL bestatin (100 μM) pre-injected 1 h before NB-APN
T4 construct: from tissue; host or cells: HepG2 xenograft tumour in nude mouse
Protocol: Transplanted tumors from two nude mice were respectively pre-injected with 50 μL of PBS (control) and bestatin (100 μM), and 1 h later, 50 μL of NB-APN (50 μM) was intratumorally injected. Imaging was conducted at different time points (0 h, 0.25 h, 0.5 h, 1.0 h, 2.0 h, and 4.0 h) after the NB-APN injection.
The intratumoral injection was adopted to study tumor imaging in a nude mouse liver cancer model under the red luminescence channel, and results are shown in FIG. 12. The fluorescence background of the nude mouse before the probe injection was very low. […] It can be considered accordingly that the fluorescence signal in a tumor is caused by the enzymatic activity of APN and thus the probe NB-APN can detect APN at a living organism level.

T3 sequence (P15144 whole entry): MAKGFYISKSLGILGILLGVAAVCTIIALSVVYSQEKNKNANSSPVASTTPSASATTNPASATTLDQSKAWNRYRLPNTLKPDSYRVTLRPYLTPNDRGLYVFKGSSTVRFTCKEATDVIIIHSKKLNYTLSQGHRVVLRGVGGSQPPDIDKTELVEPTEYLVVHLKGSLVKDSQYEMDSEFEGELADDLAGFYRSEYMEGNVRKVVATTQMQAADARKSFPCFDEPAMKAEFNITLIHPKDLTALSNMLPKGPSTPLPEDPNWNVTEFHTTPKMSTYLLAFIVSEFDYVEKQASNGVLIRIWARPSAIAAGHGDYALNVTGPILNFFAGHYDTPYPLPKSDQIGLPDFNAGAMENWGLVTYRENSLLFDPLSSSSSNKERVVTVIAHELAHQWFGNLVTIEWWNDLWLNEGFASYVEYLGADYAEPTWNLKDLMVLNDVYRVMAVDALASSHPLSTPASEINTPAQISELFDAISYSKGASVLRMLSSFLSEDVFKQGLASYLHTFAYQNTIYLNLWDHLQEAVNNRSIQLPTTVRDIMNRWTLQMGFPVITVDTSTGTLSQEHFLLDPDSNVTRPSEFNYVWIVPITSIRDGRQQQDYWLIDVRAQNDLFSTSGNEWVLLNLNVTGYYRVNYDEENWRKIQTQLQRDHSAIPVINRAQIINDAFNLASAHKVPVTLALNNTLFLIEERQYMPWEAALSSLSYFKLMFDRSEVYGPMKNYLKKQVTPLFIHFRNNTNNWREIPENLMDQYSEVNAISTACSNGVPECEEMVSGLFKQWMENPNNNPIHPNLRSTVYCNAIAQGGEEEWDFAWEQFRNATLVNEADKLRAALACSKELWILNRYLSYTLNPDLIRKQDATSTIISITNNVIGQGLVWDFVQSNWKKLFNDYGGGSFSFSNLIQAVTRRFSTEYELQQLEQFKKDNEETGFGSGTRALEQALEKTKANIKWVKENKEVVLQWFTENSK
T4 sequence (P15144 whole entry): as above
T2 sequence (P15144 whole entry): as above
Sequence of APN (P15144 whole entry, species assumed): as the sequence (P15144 whole entry) above

SMILES: CC(=O)Nc1ccc(O)cc1 [APAP, acetaminophen]
- change of R value (APN level) with APAP concentration ([1]; HepG2, APAP 500 μM and 1,000 μM, NB-APN 5 μM): gradual increase in the R value
- liver fluorescence (APN expression) in nude mice [2]: strong fluorescence appeared in the liver

SMILES: N[C@@H](CCC(=O)N[C@@H](CS)C(=O)NCC(=O)O)C(=O)O [GSH, glutathione]
- anti-hepatotoxic effect with APN as hepatotoxicity index, compared ([1]; drug 300 μM + APAP 1,000 μM): better than that of NAC and Glu, but worse than that of TIO
- effect on the red fluorescence of HepG2 cells [1]: obvious inhibitory effect

SMILES: CC(=O)N[C@@H](CS)C(=O)O [NAC]
- effect on the red fluorescence of HepG2 cells [1]: obvious inhibitory effect

SMILES: CC(S)C(=O)NCC(=O)O (stereo not shown) [TIO]
- effect on the red fluorescence of HepG2 cells [1]: obvious inhibitory effect

SMILES: CC(C)C[C@H](NC(=O)[C@@H](O)[C@H](N)Cc1ccccc1)C(=O)O [bestatin]
- effect on the fluorescence ratio signal I675/I610 of the NB-APN + APN system [3]: significant inhibitory effect
- effect on intracellular fluorescence ratio R [4]: significantly reduced
- effect on intracellular fluorescence ratio R [5]: significantly reduced
- fluorescence signal at the tumor site compared with the group without inhibitor [6]: significantly weaker
